From PMC5672931 (British Journal of Cancer, 2017)
Values joined by “and” are separate entries in the source; they are usually repeats but may differ in a detail not shown here. Equal values may be shown once.

Tests used:
CDK12 = conditions: ref Johnson et al, 2016; cited from earlier work
advanced malignancies = assay: anti-tumour activity, RECIST v. 1.0; type: in vivo, human; conditions: parts 1 and 2; extending to 30 cycles
[1] = test system: Rb phosphorylation and other CDK targets in keratinocytes; assay: CDK targets in skin biopsies; type: in vivo, human
[2] = coadministration with aprepitant; ref Zhang et al, 2012; cited from earlier work
[3] = test system: patients with advanced malignancies; assay: safety and tolerability: adverse events; type: in vivo, human; conditions: for Diarrhoea / Fatigue / Nausea / Neutropenia / Vomiting / Abdominal pain / Alopecia / Anaemia / Decreased appetite / Dehydration / Dizziness / Febrile neutropenia / Headache / Hyperbilirubinemia / Hyperglycaemia / Hyperuricemia / Hypotension / Increased ALT / Increased AST / Increased alkaline phosphatase / Leukopenia / Pancytopenia / Thrombocytopenia / Bacterial sepsis: treatment-related
[4] = skin biopsies post- vs pre-treatment, 2-h infusions
[5] = 2-h infusion at RP2D 50 mg m^−2, fifteen patients, all grades
[6] = 8- and 24-h infusion n=26, all grades
[7] = 8- and 24-h infusion n=26, grade 3–4
[8] = 8-h infusions, 16 patients, all grades
[9] = 8-h infusions, 16 patients, grade 3 or 4
[10] = 24-h infusions, 10 patients, all grades

For CCc1cnn2c(NCc3ccc[n+]([O-])c3)cc(N3CCCC[C@H]3CCO)nc12 [dinaciclib, Dinaciclib], the CDK12 inhibition (CDK12) is given as “CDK12 inhibition by dinaciclib has also been demonstrated”, the “patients with stable disease for at least six treatment cycles” value (advanced malignancies) is given as “eight” and the “cyclin D1 levels” value [1, 4] is given as “decreased”. For the same compound, the “p27^Kip1 levels” value [1, 4] was “relatively stable”, the p53 levels [1, 4] was “increased” and the Ki-67 staining ([1]; skin biopsies post-treatment) was “no substantial reduction”. The “degree of changes of Rb/CDK markers” value ([1]; skin biopsies, 8-h infusions) was “overall similar to that observed after 2-h infusions”, the “effect of aprepitant on dinaciclib PK parameters” value [2] was “does not significantly alter dinaciclib PK parameters” and the “deaths before study treatment was discontinued” value ([3]; one of gram-negative sepsis (29.6 mg m^−2, part 1), others related to progressive disease) was “Eight”. The SAE bacterial sepsis ([3]; part 1) was 2 (6%) n (%), the SAE febrile neutropenia ([3]; part 1) was 2 (6%) n (%) and the SAE hyperbilirubinemia ([3]; part 1) was 3 (8%) n (%). The SAE hypotension ([3]; part 1) was 3 (8%) n (%), the “SAE increased AST” value ([3]; part 1) was 2 (6%) n (%) and the SAE neutropenia ([3]; part 1) was 4 (11%) n (%). The SAE febrile neutropenia ([3]; part 2) was 2 (8%) n (%), the SAE hypotension ([3]; part 2) was 3 (12%) n (%) and the SAE neutropenia ([3]; part 2) was 2 (8%) n (%). The “patients with serious AEs (SAEs)” value ([3]; part 2 (8- and 24-h infusions)) was 10 (38%) n (%), the Diarrhoea [3, 5] was 8 (53%) n (%) and the Fatigue [3, 5] was 9 (60%) n (%). For the same compound, the Nausea [3, 5] was 12 (80%) n (%), the Neutropenia [3, 5] was 9 (60%) n (%) and the Vomiting [3, 5] was 11 (73%) n (%). For the same compound, the Abdominal pain ([3]; 2-h infusion n=35, all grades) was 2 (6) n (%), the Alopecia ([3]; 2-h infusion n=35, all grades) was 4 (11) n (%) and the Anaemia ([3]; 2-h infusion n=35, all grades) was 4 (11) n (%). The Decreased appetite ([3]; 2-h infusion n=35, all grades) was 5 (14) n (%), the Dehydration ([3]; 2-h infusion n=35, all grades) was 3 (9) n (%) and the Diarrhoea ([3]; 2-h infusion n=35, all grades) was 16 (46%) n (%) and 16 (46) n (%). The Dizziness ([3]; 2-h infusion n=35, all grades) was 3 (9) n (%), the Fatigue ([3]; 2-h infusion n=35, all grades) was 13 (37%) n (%) and 13 (37) n (%) and the Febrile neutropenia ([3]; 2-h infusion n=35, all grades) was 2 (6) n (%). For the same compound, the Headache ([3]; 2-h infusion n=35, all grades) was 4 (11) n (%), the Hyperbilirubinemia ([3]; 2-h infusion n=35, all grades) was 3 (9) n (%) and the Hyperglycaemia ([3]; 2-h infusion n=35, all grades) was 1 (3) n (%). The Hyperuricemia ([3]; 2-h infusion n=35, all grades) was 2 (6) n (%), the Hypotension ([3]; 2-h infusion n=35, all grades) was 3 (9) n (%) and the “Increased ALT” value ([3]; 2-h infusion n=35, all grades) was 4 (11) n (%). The “Increased AST” value ([3]; 2-h infusion n=35, all grades) was 6 (17) n (%), the Increased alkaline phosphatase ([3]; 2-h infusion n=35, all grades) was 1 (3) n (%) and the Leukopenia ([3]; 2-h infusion n=35, all grades) was 8 (23) n (%). The Nausea ([3]; 2-h infusion n=35, all grades) was 23 (66%) n (%) and 23 (66) n (%), the Neutropenia ([3]; 2-h infusion n=35, all grades) was 18 (51%) n (%) and 18 (51) n (%) and the Pancytopenia ([3]; 2-h infusion n=35, all grades) was 1 (3) n (%). For the same compound, the Thrombocytopenia ([3]; 2-h infusion n=35, all grades) was 1 (3) n (%), the Vomiting ([3]; 2-h infusion n=35, all grades) was 23 (66%) n (%) and 23 (66) n (%) and the Abdominal pain ([3]; 2-h infusion n=35, grade 3–4) was 0 n (%). For the same compound, the Alopecia ([3]; 2-h infusion n=35, grade 3–4) was 0 n (%), the Anaemia ([3]; 2-h infusion n=35, grade 3–4) was 0 n (%) and the Decreased appetite ([3]; 2-h infusion n=35, grade 3–4) was 0 n (%). For the same compound, the Dehydration ([3]; 2-h infusion n=35, grade 3–4) was 1 (3) n (%), the Diarrhoea ([3]; 2-h infusion n=35, grade 3–4) was 0 n (%) and the Dizziness ([3]; 2-h infusion n=35, grade 3–4) was 0 n (%). The Fatigue ([3]; 2-h infusion n=35, grade 3–4) was 0 n (%), the Febrile neutropenia ([3]; 2-h infusion n=35, grade 3–4) was 2 (6%) n (%) and 2 (6) n (%) and the Headache ([3]; 2-h infusion n=35, grade 3–4) was 0 n (%). For the same compound, the Hyperbilirubinemia ([3]; 2-h infusion n=35, grade 3–4) was 0 n (%), the Hyperglycaemia ([3]; 2-h infusion n=35, grade 3–4) was 1 (3) n (%) and the Hyperuricemia ([3]; 2-h infusion n=35, grade 3–4) was 2 (6%) n (%) and 2 (6) n (%). The Hypotension ([3]; 2-h infusion n=35, grade 3–4) was 1 (3) n (%), the “Increased ALT” value ([3]; 2-h infusion n=35, grade 3–4) was 2 (6%) n (%) and 2 (6) n (%) and the “Increased AST” value ([3]; 2-h infusion n=35, grade 3–4) was 3 (9%) n (%) and 3 (9) n (%). The Increased alkaline phosphatase ([3]; 2-h infusion n=35, grade 3–4) was 1 (3) n (%), the Leukopenia ([3]; 2-h infusion n=35, grade 3–4) was 6 (17%) n (%) and 6 (17) n (%) and the Nausea ([3]; 2-h infusion n=35, grade 3–4) was 0 n (%). For the same compound, the Neutropenia ([3]; 2-h infusion n=35, grade 3–4) was 16 (46%) n (%) and 16 (46) n (%), the Pancytopenia ([3]; 2-h infusion n=35, grade 3–4) was 1 (3) n (%) and the Thrombocytopenia ([3]; 2-h infusion n=35, grade 3–4) was 1 (3) n (%). The Vomiting ([3]; 2-h infusion n=35, grade 3–4) was 1 (3) n (%), the Abdominal pain [3, 6] was 1 (4) n (%) and the Alopecia [3, 6] was 2 (8) n (%). For the same compound, the Anaemia [3, 6] was 3 (12) n (%), the Bacterial sepsis [3, 6] was 1 (4) n (%) and the Decreased appetite [3, 6] was 2 (8) n (%). For the same compound, the Dehydration [3, 6] was 2 (8) n (%), the Diarrhoea [3, 6] was 7 (27) n (%) and the Dizziness [3, 6] was 2 (8) n (%). For the same compound, the Fatigue [3, 6] was 10 (38) n (%), the Febrile neutropenia [3, 6] was 2 (8) n (%) and the Headache [3, 6] was 0 n (%). The Hyperbilirubinemia [3, 6] was 1 (4) n (%), the Hyperglycaemia [3, 6] was 0 n (%) and the Hyperuricemia [3, 6] was 0 n (%). For the same compound, the Hypotension [3, 6] was 5 (19) n (%), the “Increased ALT” value [3, 6] was 1 (4) n (%) and the “Increased AST” value [3, 6] was 2 (8) n (%). For the same compound, the Increased alkaline phosphatase [3, 6] was 3 (12) n (%), the Leukopenia [3, 6] was 0 n (%) and the Nausea [3, 6] was 9 (35) n (%). The Neutropenia [3, 6] was 7 (27) n (%), the Pancytopenia [3, 6] was 0 n (%) and the Thrombocytopenia [3, 6] was 1 (4) n (%). The Vomiting [3, 6] was 7 (27) n (%), the Abdominal pain [3, 7] was 1 (4) n (%) and the Alopecia [3, 7] was 0 n (%). For the same compound, the Anaemia [3, 7] was 0 n (%), the Bacterial sepsis [3, 7] was 1 (4) n (%) and the Decreased appetite [3, 7] was 0 n (%). The Dehydration [3, 7] was 0 n (%), the Diarrhoea [3, 7] was 0 n (%) and the Dizziness [3, 7] was 0 n (%). The Fatigue [3, 7] was 2 (8) n (%), the Febrile neutropenia [3, 7] was 2 (8) n (%) and the Headache [3, 7] was 0 n (%). For the same compound, the Hyperbilirubinemia [3, 7] was 1 (4) n (%), the Hyperglycaemia [3, 7] was 0 n (%) and the Hyperuricemia [3, 7] was 0 n (%). For the same compound, the Hypotension [3, 7] was 2 (8) n (%), the “Increased ALT” value [3, 7] was 0 n (%) and the “Increased AST” value [3, 7] was 1 (4) n (%). For the same compound, the Increased alkaline phosphatase [3, 7] was 2 (8) n (%), the Leukopenia [3, 7] was 0 n (%) and the Nausea [3, 7] was 0 n (%). The Neutropenia [3, 7] was 6 (23) n (%), the Pancytopenia [3, 7] was 0 n (%) and the Thrombocytopenia [3, 7] was 0 n (%). For the same compound, the Vomiting [3, 7] was 0 n (%), the Diarrhoea [3, 8] was 7 (44%) n (%) and the Fatigue [3, 8] was 8 (50%) n (%). The Nausea [3, 8] was 7 (44%) n (%), the Neutropenia [3, 8] was 7 (44%) n (%) and the Vomiting [3, 8] was 6 (38%) n (%). The Febrile neutropenia [3, 9] was 2 (13%) n (%), the Hypotension [3, 9] was 2 (13%) n (%) and the Neutropenia [3, 9] was 6 (38%) n (%). The Fatigue [3, 10] was 2 (20%) n (%), the “Increased AST” value [3, 10] was 2 (20%) n (%) and the Increased alkaline phosphatase [3, 10] was 2 (20%) n (%). The Nausea [3, 10] was 2 (20%) n (%) and the Fatigue ([3]; 24-h infusions, 10 patients, grade 3 or 4) was 2 (20%) n (%).
